# Laboratory results as given in patent US12667584B2, “Adenosine analog and its use in regulating the circadian clock” (NATIONAL INSTITUTE OF BIOLOGICAL SCIENCES, BEIJING, priority 2017, dated 2026).
# Legend:
# [1] = system: Per2-Luc reporter U2OS cells (D15); assay: Circadian phase shift cell assay in D15 cells, 384 well plate, Tecan, with or without pentostatin; assay type: cell-based, human
# [2] = system: Per2::LUC adult murine fibroblasts; assay: Time-of-admission phase shift and amplitude in Per2::LUC adult murine fibroblasts; assay type: cell-based, mouse
# Procedure: In above investigation, we found cordycepin (cordycepin-like nucleosides) shift the circadian phase, therefore it could be seemed as a circadian time giver (zeitgeiber). One prominent character of zeitgeiber is phase dependent function. Therefore, we further tested whether cordycepin also has the character. We use both transcriptional reporter (Per2:luc U2OS cells) translational reporter (Per2::LUC adult murine fibroblasts) model to investigate this character. The two reporter were seeded in 3.5 cm dish, transferred into lumicycle, and treated with cordycepin (100 μM in Per2:luc U2OS cells and 25 μM in Per2::LUC adult murine fibroblasts) every 2 hours from CT 0 to CT 24. 3 days after treatment and data analysis, we found in both reporter cells, cordycepin show highly “time-of-admission” dependent phase-change, 12 h phase shift when applied at CT10 and nearly 0 h phase shift when applied at CT 20 (F). […] To test this, we treated nearly damped Per2::LUC adult murine fibroblasts at CT 20 with DMSO or 25 μM cordycepin.
# [3] = biological target: T1, Ruvbl2, Bmal1, Cry1 and CDK9 interaction (Homo sapiens, UniProt Q9Y230); assay: Co-immunoprecipitation in transfected HEK293T cells; assay type: cell-based; conditions: 100 μM
# T1 construct: expressed in transfected cells; host or cells: HEK293T
# Procedure: Biotinylated Compounds Pull-down, SPR analysis and Immunoprecipitation: The interaction between biotinylated compounds and their target proteins were proceeded as follow. Every 10^8 unsynchronized U2OS cells were collected, homogenized into 2 ml lysis buffer (25 mM MOPS pH7.2, 15 mM EGTA, 15 mM MgCl2, 1 mM DTT, 60 mM β-glycerophosphate, 1 mM Na3VO4, 1 mM NaF, 1 mM phenyl phosphate, Complete Protease Inhibitor Cocktail), and sonicated 6 times for 30 s at 4° C. with a Diagenode bioruptor. After sonication, NP-40 (final 0.5%) was added, incubated 15 min on ice, centrifuged at full speed for 20 min at 4° C. The resultant supernatant was firstly incubated with Pentostatin (final concentration at 5 μg/ml) for 2 h at 4° C. with rotation, and then split into 4 groups. 200 pmol cordycepin, 200 pmol DRB, and DMSO (2 groups, final 0.1%) was added respectively and further incubated for 1 h. […] The eluted protein was analyzed with western blot. The binding affinity of cordycepin against the RUVBL2 protein was measured via SPR technology using a Biacore T200 instrument (GE Healthcare) at room temperature. […] The binding kinetics and binding affinity of cordycepin against the RUVBL2 protein were determined with BIA evaluation software (GE healthcare). […] Immunoprecipitated protein complex was then washed 3 times with IP lysis buffer, boiled and analyzed with western blot. […]
# T1 sequence (Q9Y230 whole entry): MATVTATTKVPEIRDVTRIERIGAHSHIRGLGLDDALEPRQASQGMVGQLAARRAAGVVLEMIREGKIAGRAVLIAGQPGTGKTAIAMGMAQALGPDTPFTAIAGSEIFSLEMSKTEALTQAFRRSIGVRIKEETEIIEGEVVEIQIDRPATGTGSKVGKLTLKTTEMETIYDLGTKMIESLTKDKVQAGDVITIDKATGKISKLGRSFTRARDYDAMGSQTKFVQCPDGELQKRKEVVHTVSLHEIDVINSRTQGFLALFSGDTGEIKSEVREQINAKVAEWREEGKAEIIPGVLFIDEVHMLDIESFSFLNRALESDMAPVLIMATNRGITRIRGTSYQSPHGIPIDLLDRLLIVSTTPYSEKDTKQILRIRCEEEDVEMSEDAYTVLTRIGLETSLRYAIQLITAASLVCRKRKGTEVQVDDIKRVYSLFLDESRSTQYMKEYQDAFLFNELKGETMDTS
smiles,measurement,setting,value
"Nc1ncnc2c1ncn2[C@@H]1O[C@H](CO)C[C@H]1O [Cordycepin, 3′-deoxy-adenosine]",concentration of eliciting 12 h phase shift (potency),[1]; pentostatin containing medium (5 μg/ml),200 nM
same,concentration of eliciting 12 h phase shift (potency),"[1]; pentostatin containing medium (5 μg/ml), listed as cordycepin",180 nM
same,concentration of eliciting 12 h phase shift (potency),[1]; without pentostatin,25000 nM
same,phase shift,[2]; 25 μM applied at CT10,12 h
same,phase shift,[2]; 25 μM applied at CT 20,~0 h
same,amplitude,"[2]; 25 μM at CT 20, nearly damped fibroblasts",increase the amplitude
same,"interaction between Ruvbl2 and Bmal1, or Cry1 with Bmal1",[3],can be disassociated
same,interaction between Ruvbl2 with Cry1 or CDK9,[3],is not disassociated
